Data taken from patent publication US20230321187A1, “OCTOPUS-DERIVED PEPTIDE OCTOPROMYCIN HAVING ANTIBACTERIAL AND ANTI-BIOFILM ACTIVITY AGAINST ACINETOBACTER BAUMANNII” (priority 2020, published 2023).
“Also recorded” adds a separate entry of the source. Where no end group is shown, it is not given here.

Legend:
A. baumannii [1] = assay: Propidium iodide (PI) uptake / FDA staining membrane permeability assay (CLSM); assay type: cell-based, Acinetobacter baumannii
Protocol: Propidium iodide (PI) uptake assay was performed to evaluate an effect of octopromycin on association with the membrane permeability and apoptosis of A. baumannii. The PI was a red fluorescent nuclear and chromosome counter dye that indicated changes in cell membrane permeability, and was used to detect the presence of dead cells and simultaneously observe live cells by observing green fluorescence (FDA). A. baumannii treated with octopromycin at MIC; 50 μg/mL and MBC; 200 μg/mL levels and control cell suspensions were centrifuged (5000 rpm for 2 minutes), washed with PBS and the pellets were suspended in PBS. Subsequently, the cells were cultured with 20 μg/mL of PI (Sigma Aldrich, USA) and 8 μg/mL of FDA (Sigma Aldrich, USA) at 25° C. for 30 minutes in the dark, and finally, the remaining dye was washed with PBS. Finally, a 5 μL drop of each suspension was placed on a cover slip and fluorescence images were observed using a CLSM integrated with a scan head on an Axiovert 200M inverted microscope (Carl Zeiss, Germany).

A. baumannii [2] = assay: Histological analysis of A. baumannii-infected zebrafish (H&E); assay type: in vivo; settings: 48 hpe, vs A. baumannii-infected group
Text: Two zebrafish were selected from each group at the 80% death stage (48 hpe) and the spleen, gills and kidneys were collected separately. Structural changes in A. baumannii-infected zebrafish treated with octopromycin were confirmed by histological analysis. Briefly, two fish from each group (control group, A. baumannii-infected group and octopromycin-treated group) were anesthetized with excess tricaine and the spleen, gills, and kidneys were surgically removed. Each tissue was immersed in PBS and fixed in 10% neutral buffered formalin. After a 12-hour washing step, tissues were dehydrated using a graded series of alcohols in a semi-closed benchtop tissue processor (Leica® TP1020, Germany). The dehydrated tissues were paraffin-embedded (Leica®EG1150 Tissue Embedding Center, Germany), sectioned at […] (Leica®RM2125 microtome, Germany), and stained with Hematoxylin and Eosin (H & E) (Sigma, Aldrich). The stained tissues of each group were imaged using a digital camera (LEICA®DCF450-C, Germany) connected to a microscope (LEICA®DM 3000 LED).

A. baumannii [3] = assay: FE-SEM analysis of morphological and ultrastructural changes; assay type: cell-based, Acinetobacter baumannii; settings: MIC (50 μg/mL) and MBC (200 μg/mL), 9 hours
Protocol: To understand a mode of action of octopromycin, FE-SEM analysis was performed at MIC and MBC concentrations to estimate the ultrastructure changes of A. baumannii.
First, A. baumannii cells were treated with octopromycin at MIC (50 μg/mL) and MBC (200 μg/mL) for 9 hours. As a negative control group, an untreated A. baumannii culture solution was used, and all other steps were performed identically for the sample. Subsequently, the culture solution was centrifuged at 3500 rpm […] and the pellet was washed with phosphate saline buffer PBS and prefixed with 2.5% glutaraldehyde for 30 minutes. Then, the prefixed cells were washed with PBS and continuously dehydrated using ethanol (30, 50, 70, 80, 90, and 100%). The fixed cells were dried and coated with platinum using an ion sputter (E-1030, Hitachi, Japan).

A. baumannii [4] = assay: H2DCF-DA assay of ROS production; assay type: cell-based, Acinetobacter baumannii; settings: MIC (50 μg/mL) and MBC (200 μg/mL), 10 hours
Protocol: To further examine a mode of action of octopromycin related to endogenous ROS production in A. baumannii by octopromycin, H2DCF-DA assay was performed. The accumulation of ROS in A. baumannii was quantified using fluorescent probe carboxy-H2DCF-DA (Invitrogen, USA). An A. baumannii culture solution (OD-0.25, 5×10^6 CFU/mL) was treated with octopromycin (MIC; 50 μg/mL and MBC; 200 μg/mL) and cultured at 25° C. for 10 hours, and then, cells were harvested by centrifugation at 5000 rpm for 2 minutes. To detect ROS levels, the cells were stained with H2DCF-DA (100 μg/mL) and cultured at room temperature (24±1° C.) for 30 minutes and then centrifuged at 5000 rpm for 2 minutes. The cells were washed with ×1 PBS and dichloro-fluorescein (DCF) fluorescence was measured using CLSM (LSMS Live Configuration Variotwo VRGB, Zeiss, Germany) at an excitation wavelength of 488 nm and an emission wavelength of 535 nm.

zebrafish embryos = assay: Zebrafish embryo toxicity (mortality and teratogenicity); assay type: in vivo
Protocol: Wild-type (AB) adult zebrafish was maintained in an automated water circulation system at 28° C. under a photoperiod of 14 h (light): 10 h (dark). After zebrafish (to 4 months of age) was mated, embryos were collected at a 1 hours post fertilization (1 hpf) stage and rinsed with embryo water. First, the viability of newly fertilized embryos was identified under a stereoscopic microscope (Nikon, SMZ1000, Japan) before use in experiments. To determine toxicity levels at 24, 48, 72, and 96 hours after exposure, embryos at stages 1-2 hpf were exposed to various concentrations of octopromycin (0 to 8 μg/mL) for 96 hours.
In addition, to evaluate in vivo toxicity, the cumulative mortality of developing zebrafish embryos for 96 hours was calculated at octopromycin exposure (0, 0.25, 0.50, 1.00, 2.00, 4.00, and 8.00 μg/mL). […] However, concentration-dependent mortality patterns occurred by an increase in octopromycin concentration.

For “RRLIRTDTGPIIYDYFKDQLLKKGMVILRESMKNLKGM [octopromycin]”, the “membrane permeability (PI/FDA staining)” value (A. baumannii [1]; MBC (200 μg/mL)) was “almost all A. baumannii cells showed red fluorescence signals”, the “membrane permeability (PI/FDA staining)” value (A. baumannii [1]; MIC (50 μg/mL)) was “more PI-stained red fluorescent cells” and the “histology of kidney, spleen and gills” value (A. baumannii [2]) was “tissue disorders and pathological damage were reduced overall; also recorded: tissue disorders and pathological damage were reduced in all tissues”. The “morphological and ultrastructural changes (FE-SEM)” value (A. baumannii [3]) was “severe membrane destruction; also recorded: caused ultrastructural cell wall deformation”, the ROS level (A. baumannii [4]) was “increased in a concentration-dependent manner; also recorded: increased the production of reactive oxygen species” and the embryo mortality (zebrafish embryos; 0.25 μg/mL, 96 hours exposure) was “no embryo mortality”. For the same sequence, the “toxicity to zebrafish embryos” value (zebrafish embryos; 4 μg/mL) was “not toxic”, the embryo mortality (zebrafish embryos; 8.0 μg/mL, 24 hpe) was 100% and the maximum non-lethal concentration (zebrafish embryos; zebrafish embryos, no abnormal appearance) was 4 µg/mL.
